This assay concerns C. neoformans. Kind of assay: in vitro growth inhibition. Format: cell-based, Cryptococcus neoformans. The note with it: highest tested concentration 20 μg/mL; NA = not active.

Structures are written as SMILES.

Regarding `COc1ccc(-c2nc(C[C@H](N)C(=O)N[C@@H](CCCNC(=N)N)C(=O)NCc3ccccc3)c[nH]2)cc1` [Peptide 5d], the “C. neoformans IC50 (concentration that affords 50% inhibition of growth)” value was “inactive”.

For the origin of these results see PMC4066839 (MedChemComm, 2014).
